Structures can show the parent of a compound that is named as a salt.
Molecular target: IRAK4 (Homo sapiens (Human), UniProt Q9NWZ3)
Test: IRAK4 Kinase Assay
Format: biochemical
Details: IMAP fluorescence polarization, 0.5 nM GST tagged IRAK4, 100 μM ATP, 30 minutes at 25° C.; read-out: IRAK4 IC50
Method: The kinase activity of IRAK4 is determined by its ability to catalyze the phosphorylation of a fluorescent polypeptide substrate. The extent of phosphorylation is measured using the IMAP technology (Molecular Devices) where the phosphorylated fluorescent substrate binds to the large M(III)-based nanoparticles which reduces the rotational speed of the substrate and thus increases its fluorescent polarization (FP).
20 μL reaction mixture contains 10 mM TriHCl, pH 7.2, 0.5 nM GST tagged IRAK4 (SignalChem), 100 nM fluorescent peptide substrate (RP7030, Molecular Devices), 100 μM ATP, 1 mM DDT, 1 mM MgCl2, and 0.01% Tween 20. The reaction is initiated by the addition of ATP. After incubation for 30 minutes at 25° C., 60 μL of Progressive IMAP Reagent (Molecular Devices) is added to stop the reaction. Change in RP7030's FP is determined by a FP reader (Analyst HT, LJL BioSystems).

IRAK4, sequence (Q9NWZ3 whole entry): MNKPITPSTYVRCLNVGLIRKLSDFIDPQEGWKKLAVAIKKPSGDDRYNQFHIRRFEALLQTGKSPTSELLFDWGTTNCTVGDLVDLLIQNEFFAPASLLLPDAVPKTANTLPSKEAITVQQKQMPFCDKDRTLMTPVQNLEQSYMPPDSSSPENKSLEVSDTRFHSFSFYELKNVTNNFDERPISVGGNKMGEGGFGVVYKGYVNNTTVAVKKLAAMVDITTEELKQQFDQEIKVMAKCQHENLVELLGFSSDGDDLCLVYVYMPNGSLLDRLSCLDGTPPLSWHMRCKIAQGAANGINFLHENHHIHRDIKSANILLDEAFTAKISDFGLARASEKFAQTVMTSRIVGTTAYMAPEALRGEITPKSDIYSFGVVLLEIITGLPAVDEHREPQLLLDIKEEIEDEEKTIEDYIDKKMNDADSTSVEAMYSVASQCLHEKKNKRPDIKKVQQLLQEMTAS

Row | SMILES | IC50 [µM]
1 | Cn1cc(NC(=O)c2cnn3ccc(N4CCN5CCCC5C4)nc23)c(C(F)(F)F)n1 (stereo not shown) [Example 18, 5-(hexahydropyrrolo[1,2-a]pyrazin-2(1H)-yl)-N-[1-methyl-3-(trifluoromethyl)-1H-pyrazol-4-yl]pyrazolo[1,5-a]pyrimidine-3-carboxamide] | 0.097
2 | Cn1cc(NC(=O)c2cnn3ccc(N4CC5CC(C4)N5)nc23)c(C(F)(F)F)n1 [Example 19, 5-(3,6-diazabicyclo[3.1.1]hept-3-yl)-N-[1-methyl-3-(trifluoromethyl)-1H-pyrazol-4-yl]pyrazolo[1,5-a]pyrimidine-3-carboxamide trifluoroacetate] | 0.389
3 | Cn1cc(NC(=O)c2cnn3ccc(N4C[C@@H](O)C[C@H](O)C4)nc23)c(C(F)(F)F)n1 [Example 21, 5-[(3S,5S)-3,5-dihydroxypiperidin-1-yl]-N-[1-methyl-3-(trifluoromethyl)-1H-pyrazol-4-yl]pyrazolo[1,5-a]pyrimidine-3-carboxamide] | 0.02
4 | Cn1cc(NC(=O)c2cnn3ccc(N4CCC[C@H](O)C4)nc23)c(C(F)(F)F)n1 [Example 22, 5-[(3S)-3-hydroxypiperidin-1-yl]-N-[1-methyl-3-(trifluoromethyl)-1H-pyrazol-4-yl]pyrazolo[1,5-a]pyrimidine-3-carboxamide] | 0.002
5 | Cn1cc(NC(=O)c2cnn3ccc(N4CCC[C@@H](O)C4)nc23)c(C(F)(F)F)n1 [Example 23, 5-[(3R)-3-hydroxypiperidin-1-yl]-N-[1-methyl-3-(trifluoromethyl)-1H-pyrazol-4-yl]pyrazolo[1,5-a]pyrimidine-3-carboxamide] | 0.0009
6 | Cn1cc(NC(=O)c2cnn3ccc(N4C[C@H](O)C[C@@H](O)C4)nc23)c(C(F)F)n1 [Example 24, N-[3-(difluoromethyl)-1-methyl-1H-pyrazol-4-yl]-5-[(3R,5R)-3,5-dihydroxypiperidin-1-yl]pyrazolo[1,5-a]pyrimidine-3-carboxamide] | 0.004
7 | Cn1cc(NC(=O)c2cnn3ccc(N4CCC[C@@H](O)C4)nc23)c(C(F)F)n1 [Example 25, N-[3-(difluoromethyl)-1-methyl-1H-pyrazol-4-yl]-5-[(3R)-3-hydroxypiperidin-1-yl]pyrazolo[1,5-a]pyrimidine-3-carboxamide] | 0.0005
8 | Cn1cc(NC(=O)c2cnn3ccc(N4CCC[C@H](O)C4)nc23)c(C(F)F)n1 [Example 26, N-[3-(difluoromethyl)-1-methyl-1H-pyrazol-4-yl]-5-[(3S)-3-hydroxypiperidin-1-yl]pyrazolo[1,5-a]pyrimidine-3-carboxamide] | 0.0005
9 | Cn1cc(NC(=O)c2cnn3ccc(N4CCNC(C)(C)C4)nc23)c(C(F)(F)F)n1 [Example 30, 5-(3,3-dimethylpiperazin-1-yl)-N-[1-methyl-3-(trifluoromethyl)-1H-pyrazol-4-yl]pyrazolo[1,5-a]pyrimidine-3-carboxamide trifluoroacetate] | 0.071
10 | Cn1cc(NC(=O)c2cnn3ccc(N4CCC[C@@H](N)C4)nc23)c(C(F)(F)F)n1 [Example 32, 5-[(3R)-3-aminopiperidin-1-yl]-N-[1-methyl-3-(trifluoromethyl)-1H-pyrazol-4-yl]pyrazolo[1,5-a]pyrimidine-3-carboxamide] | 0.003
11 | CN1CCN(c2ccn3ncc(C(=O)Nc4cn(C)nc4C(F)(F)F)c3n2)CC1 [Example 34, 5-(4-methylpiperazin-1-yl)-N-[1-methyl-3-(trifluoromethyl)-1H-pyrazol-4-yl]pyrazolo[1,5-a]pyrimidine-3-carboxamide] | 0.269
12 | CN1CCN(c2ccn3ncc(C(=O)Nc4cn(C)nc4C(F)(F)F)c3n2)C(C)(C)C1 [Example 35, N-[1-methyl-3-(trifluoromethyl)-1H-pyrazol-4-yl]-5-(2,2,4-trimethylpiperazin-1-yl)pyrazolo[1,5-a]pyrimidine-3-carboxamide trifluoroacetate] | 0.589
13 | Cn1cc(NC(=O)c2cnn3ccc(N4CCNCC4CC(F)(F)F)nc23)c(C(F)(F)F)n1 (stereo not shown) [Example 41, N-[1-methyl-3-(trifluoromethyl)-1H-pyrazol-4-yl]-5-[2-(2,2,2-trifluoroethyl)piperazin-1-yl]pyrazolo[1,5-a]pyrimidine-3-carboxamide trifluoroacetate] | 0.106
14 | Cn1cc(NC(=O)c2cnn3ccc(N4CCC[C@H](N)C4)nc23)c(C(F)(F)F)n1 [Example 44, 5-[(3S)-3-aminopiperidin-1-yl]-N-[1-methyl-3-(trifluoromethyl)-1H-pyrazol-4-yl]pyrazolo[1,5-a]pyrimidine-3-carboxamide] | 0.005
15 | CC(C)(C)n1cc(NC(=O)c2cnn3ccc(N4CCNCC4)nc23)c(C(F)(F)F)n1 [Example 46, N-[1-tert-butyl-3-(trifluoromethyl)-1H-pyrazol-4-yl]-5-piperazin-1-ylpyrazolo[1,5-a]pyrimidine-3-carboxamide trifluoroacetate] | 0.048
16 | CC(C)(C)n1cc(NC(=O)c2cnn3ccc(N4CCNCC5(CC5)C4)nc23)c(C(F)(F)F)n1 [Example 47, N-[1-tert-butyl-3-(trifluoromethyl)-1H-pyrazol-4-yl]-5-(5,8-diazaspiro[2.6]non-5-yl)pyrazolo[1,5-a]pyrimidine-3-carboxamide trifluoroacetate] | 0.049
17 | CC(C)(C)n1cc(NC(=O)c2cnn3ccc(N[C@@H]4CCCC[C@@H]4O)nc23)c(C(F)(F)F)n1 [Example 48, N-[1-tert-butyl-3-(trifluoromethyl)-1H-pyrazol-4-yl]-5-{[(1R,2S)-2-hydroxycyclohexyl]amino} pyrazolo[1,5-a]pyrimidine-3-carboxamide trifluoroacetate] | 0.259
18 | CC(C)n1cc(NC(=O)c2cnn3ccc(N4CCNCC5(CC5)C4)nc23)c(C(F)(F)F)n1 [Example 51, 5-(5,8-diazaspiro[2.6]non-5-yl)-N-[1-(1-methylethyl)-3-(trifluoromethyl)-1H-pyrazol-4-yl]pyrazolo[1,5-a]pyrimidine-3-carboxamide] | 0.032

Second part, the compound after the results:

Row | IC50 [µM] | SMILES
19 | 0.149 | Cn1cc(NC(=O)c2cnn3ccc(N4CCNCC(F)C4)nc23)c(C(F)(F)F)n1 (stereo not shown) [Example 27, 5-(6-fluoro-1,4-diazepan-1-yl)-N-[1-methyl-3-(trifluoromethyl)-1H-pyrazol-4-yl]pyrazolo[1,5-a]pyrimidine-3-carboxamide trifluoroacetate]
20 | 0.072 | Cn1cc(NC(=O)c2cnn3ccc(N4CCNC(C5CC5)C4)nc23)c(C(F)(F)F)n1 (stereo not shown) [Example 28, 5-(3-cyclopropylpiperazin-1-yl)-N-[1-methyl-3-(trifluoromethyl)-1H-pyrazol-4-yl]pyrazolo[1,5-a]pyrimidine-3-carboxamide trifluoroacetate]
21 | 0.024 | Cn1cc(NC(=O)c2cnn3ccc(N4CCNCC4C4CC4)nc23)c(C(F)(F)F)n1 (stereo not shown) [Example 29, 5-(2-cyclopropylpiperazin-1-yl)-N-[1-methyl-3-(trifluoromethyl)-1H-pyrazol-4-yl]pyrazolo[1,5-a]pyrimidine-3-carboxamide trifluoroacetate]
22 | 0.004 | N[C@H]1CCCC[C@H]1Nc1ccn2ncc(C(=O)Nc3ccncc3C(F)(F)F)c2n1 [Example 31, 5-{[(1R,2S)-2-aminocyclohexyl]amino}-N-[3-(trifluoromethyl)pyridin-4-yl]pyrazolo[1,5-a]pyrimidine-3-carboxamide formate]
23 | 0.376 | Cn1cc(NC(=O)c2cnn3ccc(N4CCNCC(F)(F)C4)nc23)c(C(F)(F)F)n1 [Example 36, 5-(6,6-difluoro-1,4-diazepan-1-yl)-N-[1-methyl-3-(trifluoromethyl)-1H-pyrazol-4-yl]pyrazolo[1,5-a]pyrimidine-3-carboxamide trifluoroacetate]
24 | 0.016 | N[C@H]1CCCC[C@H]1Nc1ccn2ncc(C(=O)Nc3ccccc3C(F)(F)F)c2n1 [Example 38, 5-{[(1R,2S)-2-aminocyclohexyl]amino}-N-[2-(trifluoromethyl)phenyl] pyrazolo[1,5-a]pyrimidine-3-carboxamide trifluoroacetate]
25 | 0.002 | N#Cc1cscc1NC(=O)c1cnn2ccc(N[C@@H]3CCCC[C@@H]3N)nc12 [Example 39, 5-{[(1R,2S)-2-aminocyclohexyl]amino}-N-(4-cyanothiophen-3-yl)pyrazolo[1,5-a]pyrimidine-3-carboxamide trifluoroacetate]
26 | 0.497 | Cn1cc(NC(=O)c2cnn3ccc(N4CCN5CCC4CC5)nc23)c(C(F)(F)F)n1 [Example 40, 5-(1,4-diazabicyclo[3.2.2]non-4-yl)-N-[1-methyl-3-(trifluoromethyl)-1H-pyrazol-4-yl]pyrazolo[1,5-a]pyrimidine-3-carboxamide trifluoroacetate]
27 | 0.0009 | N#Cc1sccc1NC(=O)c1cnn2ccc(N[C@@H]3CCCC[C@@H]3N)nc12 [Example 42, 5-{[(1R,2S)-2-aminocyclohexyl]amino}-N-(2-cyanothiophen-3-yl)pyrazolo[1,5-a]pyrimidine-3-carboxamide trifluoroacetate]
28 | 0.045 | Cn1cc(NC(=O)c2cnn3ccc(N4CCN5CCC4C5)nc23)c(C(F)(F)F)n1 (stereo not shown) [Example 43, 5-(1,4-diazabicyclo[3.2.1]oct-4-yl)-N-[1-methyl-3-(trifluoromethyl)-1H-pyrazol-4-yl]pyrazolo[1,5-a]pyrimidine-3-carboxamide trifluoroacetate]
29 | 0.008 | N[C@H]1CCCC[C@H]1Nc1ccn2ncc(C(=O)Nc3ccoc3C(F)(F)F)c2n1 [Example 45, 5-{[(1R,2S)-2-aminocyclohexyl]amino}-N-[2-(trifluoromethyl)furan-3-yl]pyrazolo[1,5-a]pyrimidine-3-carboxamide trifluoroacetate]
30 | 0.89 | CC(C)(C)n1cc(NC(=O)c2cnn3ccc(N[C@@H]4CCCC(F)(F)[C@@H]4N)nc23)c(C(F)(F)F)n1 [Example 49, 5-{[(1R,2R)-2-amino-3,3-difluorocyclohexyl]amino}-N-[1-tert-butyl-3-(trifluoromethyl)-1H-pyrazol-4-yl]pyrazolo[1,5-a]pyrimidine-3-carboxamide trifluoroacetate]
31 | 0.09 | CC(C)(C)n1cc(NC(=O)c2cnn3ccc(N4CC5CCC4CN5)nc23)c(C(F)(F)F)n1 (stereo not shown) [Example 50, N-[1-tert-butyl-3-(trifluoromethyl)-1H-pyrazol-4-yl]-5-(2,5-diazabicyclo[2.2.2]oct-2-yl)pyrazolo[1,5-a]pyrimidine-3-carboxamide trifluoroacetate]

Reference: US10329294B2, “Pyrazolopyrimidine inhibitors of IRAK4 activity” (MERCK SHARP & DOHME CORP., priority 2015, dated 2019)
